Test results taken from patent US4514330A, “Carbon-7-substituted atinomycin D analogue” (Trustees of Boston University, priority 1983, dated 1985).
≈ marks a conversion by molar mass, not a printed value.

Columns and labels:
DNA = test: Thermal denaturation of DNA (ΔTm), stabilization of DNA helical structure on drug binding; parameters: species or system calf thymus; conditions: for DNA melting profile / ΔTm character of the DNA complex: thermal denaturation, words
Protocol: Thermal denaturation studies were carried out according to the procedure described in J. Med. Chem., Vol. 24, p. 1052 (1981). The ΔTm values in Table II give a measure of stabilization of DNA helical structure as a consequence of drug binding.
^a ΔTm = m of DNAdrug complex minus m of DNA.
Concentraiton of drug, 1.4 × 10^-4 M; of DNA (P), 1.4 ×
10^-3 M in 0.01 M phosphate buffer (pH 7.0), 5 × 10^-3 M in
EDTA and 5% dimethyl sulfoxide.
^d Highest dose tested. These values are derived at high temperatur
(67°-75° C.) and may not always correlate with the results
of other DNA-binding studies (e.g., absorptiometric or circular dichroic).
Melting points were obtained with a Thomas-Hoover melting point apparatus at a heating rate of 2° C./min. Column chromatography was accomplished with silica gel powder (Baker No. 3405, 60-20 mesh) or acid alumina (Woelm grade 1). Limited gel-filtration work was done on Sephadex LH-20, particle size 25-100 μm (Pharmacia Fine Chemicals). Thin-layer chromatography was performed on silica gel plates (E. M. Laboratories, Inc.). Solvent systems used were (A) butanol-formic acid-H2 O (75:13:12), (B) EtOAc-acetone (3:1), and (C) Cifferri, the organic phase of the mixture EtOAc-MeOH-H2 O (20:1:20). High-performance liquid chromatography was carried out on a Varian Model 5020 gradient liquid chromatograph equipped with CD-111L chromatography data system and fitted with Varian reversed-phase C18 column with isocratic solvent systems, CH3 -CN-5 mM NH4 OAc buffer, pH 6.4 (68:32 or 62:38), pressure 80-140 atm, flow rate 1.5 mL/min, with UV-visible variable and fixed wavelength dual detectors at 254 and 466 nm. Spectra were determined on the following instruments: IR spectra were obtained with a Perkin-Elmer Model 237 Infra Cord with KBr micropellets or chloroform solutions; UV-visible spectra were obtained on a Gilford 250 spectrophotometer, which, with the addition of a base-line reference compensator (Analog Multiplexer 6064) and thermoprogrammer, auto four cell programmer and thermoelectric cell holder 2577, was used to obtain thermal denaturation curves; NMR spectra were obtained on a JOEL FQ-90-90MHZ spectrometer equipped with Fourier transform; and CD spectra were obtained on a Cary 61 spectrophotometer. All elemental analyses were within ±0.4% of the theoretical values. Actinomycin D, batch no. NCS 3053, lot L554651-0-10, was provided by Natural Products Branch, National Cancer Institute, Silver Spring, Md. Calf thymus DNA type 1 was purchased from Sigma Chemical Co.

calf thymus DNA = test: DNA binding by visible absorption and CD spectra of DNA (P)-drug complex; conditions: mole ratio DNA (P)/analogue = 10:1; 3b, 4b and 5b compared; 1.0×10^-5 M, pH 7
From the text: In FIG. 1, absorption (top) and circular dichroism (bottom) spectra in 0.01 M phosphate buffer (pH7) containing EDTA (10^-5 M) and Me2 SO (5%): 3b (...), 4b (---), 5b (--). Concentration of drug in each case was 1.0×10^-5 M. In this respect, they are almost indistinguishable from the known analogue 7-methoxyactinomycin D (5b), whose structure and physical properties we have previously reported. The absorption spectra of all these analogues in aqueous buffer are also almost superimposable. […] The absorption spectrum of the analogues above 240 nm is mainly due to the electronic configuration of the tricyclic chromophore. The CD spectrum in the same wavelength region is an indicator of peptide conformation in actinomycin analogues, because it is the peptide lactone ring that confers optical activity on the nearly planar chromophore. The nature of the CD spectra (3b, 4b and 5b) asserts that in these analogues there is an identical relationship between the chromophores and peptide lactones. This relationship is very important, because during binding to DNA, AMD and some analogues are known to rely on the cooperative role between the chromophore and the peptide lactones for their highly specific DNA-binding property.
Any change in the configurations of the peptide lactones on binding to DNA is generally expressed in the CD spectra of the analogue-DNA complexes. […] The changes in the visible absorption spectra of 3b, 4b and 5b and also their CD spectra observed after adding calf thymus DNA [mole ratio of DNA (P)/analogue=10:1] are identical (FIG. 2). In FIG. 2, the absorption (top) and CD spectra of the DNA (P)-drug complex (ratio 10:1). Concentrations, buffer and line types are as in FIG. 1.

[1] = system: human lymphoblastic leukemic cells (CCRF-CEM); test: In vitro growth-inhibitory activity against human lymphoblastic leukemic cells (CCRF-CEM) in log phase; type: cell-based; conditions: for IC50: Homo sapiens, final growth medium contained 1% Me2SO, log phase, read-out: ID50 (in vitro growth inhibition, CCRF-CEM)
Protocol: ^b Using human lymohoblastic leukemia cells in logplastic growth.
Compounds were dissolved in Me2 So medium, final growth medium

[2] = In vivo metabolic transformation and urinary excretion; parameters: species or system rat; conditions: metabolites as conjugates of 4b
Protocol: The therapeutic indexes of both 3b and 4b in qd 1-4 and q4d 1, 5, 9 schedules of treatment are calculated and expressed in Table IV. […] These and other unidentified polar metabolites are excreted at about two to three times the rate of AMD in rat urine. This process of in vivo metabolic transformation and fast excretion appears to play a major role in reducing the in vivo toxicity factor of 3b and 4b.

Cc1c2oc3c(C)c(OCC(O)CO)cc(C(=O)N[C@@H]4C(=O)N[C@H](C(C)C)C(=O)N5CCC[C@H]5C(=O)N(C)CC(=O)N(C)[C@@H](C(C)C)C(=O)O[C@@H]4C)c3nc-2c(C(=O)N[C@@H]2C(=O)N[C@H](C(C)C)C(=O)N3CCC[C@H]3C(=O)N(C)CC(=O)N(C)[C@@H](C(C)C)C(=O)O[C@@H]2C)c(N)c1=O (some centres unmarked) [Compound 4b, 7-(2,3-Dihydroxypropoxy) actinomycin D]
Tm (ΔTm = Tm of DNA-drug complex minus Tm of DNA) (DNA; drug 1.4 × 10^-4 M, DNA (P) 1.4 × 10^-3 M, 0.01 M phosphate buffer pH 7.0, EDTA, 5% dimethyl sulfoxide): 5.1 ± 0.15 °C | DNA melting profile / ΔTm character of the DNA complex (DNA): sharp and smooth | changes in visible absorption and CD spectra after adding calf thymus DNA (calf thymus DNA): identical | IC50 [1]: 0.085 mg/L (≈ 0.0632 µM) | times less cytotoxic than AMD ([1]; vs AMD): about 1.5 times | in vivo metabolic transformation [2]: transformed in vivo to highly polar metabolites

Cc1c2oc3c(C)c(OCC4CO4)cc(C(=O)N[C@@H]4C(=O)N[C@H](C(C)C)C(=O)N5CCC[C@H]5C(=O)N(C)CC(=O)N(C)[C@@H](C(C)C)C(=O)O[C@@H]4C)c3nc-2c(C(=O)N[C@@H]2C(=O)N[C@H](C(C)C)C(=O)N3CCC[C@H]3C(=O)N(C)CC(=O)N(C)[C@@H](C(C)C)C(=O)O[C@@H]2C)c(N)c1=O (some centres unmarked) [Compound 3b, 7-(2,3-Epoxypropoxy)actinomycin D]
DNA melting profile / ΔTm character of the DNA complex (DNA): very broad | changes in visible absorption and CD spectra after adding calf thymus DNA (calf thymus DNA): identical | IC50 [1]: 0.009 mg/L (≈ 0.00678 µM) | times more cytotoxic than AMD ([1]; vs AMD): about sevenfold | in vivo metabolic transformation [2]: transformed in vivo to highly polar metabolites
